Assay results from patent US20210317090A1, “AMINO ACID DEPLETION AGENTS AS ANTIPROLIFERATIVE AGENTS” (University of Central Florida Research Foundation, Inc., priority 2018, published 2021).

Columns and labels:
L3.6pl cells [1] = assay: Analytes in supernatant of L3.6pl cells (LCMS); type: cell-based, human; settings: 72 h
Excerpt: One way to affect both spermidine and spermine pools is to decrease methionine supply, which in turn would inhibit the formation of the decarboxylated S-adenosylmethionine needed to provide the aminopropyl fragment required for spermidine and spermine synthesis. Since methionine, leucine and phenylalanine all use the LAT1/SLC3A2 transporter to enter cells, it was hypothesized that 10 was inhibiting LAT-1 mediated amino acid import. To test this hypothesis, the development of various embodiments involved measuring the amino acid concentrations in the supernatants of cells incubated with compound 10 at 2 and 5 μM for 72 h.
(§1) This example illustrates aspects according to various embodiments pertaining to a 72 h experiment with Compound 10 in L3.6pl cells. Ten milliliters of a cell suspension containing L3.6pl human pancreatic cancer cells (50,000 cells/mL) and aminoguanidine ([…]) were placed in treated plastic Petri dishes (d=9 cm) and incubated overnight at 37° C. After 24 h, the cells were dosed with compound 10 at 2 μM, 5 μM, or 7 μM. (Note: Stock solutions of 10 at 2, 5, and 7 mM were dissolved in phosphate buffered saline (PBS) and were filtered through a 0.2 μm filter prior to use. The experiments were maintained with a total volume of 10.01 mL where 10 mL of the cell suspension was placed in a plastic dish and each compound or the equivalent PBS volume was added to make up the total volume 10.01 mL for each dish. For example, for the control experiment PBS (10 μL) was added to make up the total volume (10 mL+10 μL=10.01 mL). After 72 h incubation, the cells were collected first by pipetting off the supernatant containing floating dead cells from the culture dish as well as media and placing them into 15 mL tubes. The supernatant containing floating cells was centrifuged (4 min at 1,000 rpm). The cell-free supernatant (supernatant #1) was collected into a new 15 mL tube and quantified (˜8.6 mL) and was then stored frozen and was later quantified by LCMS to investigate the media composition of particular polyamine and amino acid analytes. The attached cells on the dish were washed with PBS (5 mL). The PBS wash was removed by suction and additional PBS (2 mL) was added and again suctioned off to provide twice-washed cells still adhered to the dish. Trypsin (2 mL) was then added to each dish and incubated (3-5 min) until all the cells were detached. Fresh media (8 mL) was added to quench the trypsin. The cell solutions were pipetted into separate 15 mL tubes and centrifuged (4 min at 1,000 rpm). The resulting supernatant was removed to provide a pellet. The pellet was suspended in PBS (10 mL) and was counted by a hemocytometer to provide cell counts for each experimental condition. The pellet was then centrifuged (4 min at 1,000 rpm) and the supernatant removed and the remaining pellet was quantified via protein and polyamine analysis.
This example illustrates aspects according to various embodiments pertaining to an LCMS Analysis. The respective supernatant (10 μL) was injected on a Thermo HPLC system equipped with PAL CTC plate sampler (96-well plate), Dionex Ultimate 3000 binary pump (flow rate at 0.25 mL/min), Dionex Ultimate 3000 thermostatted column compartment (temperature at 40° C.), Thermo Endura Mass Spectrometer (ESI source), using Thermo Scientific Accucore C18 (2.6 μm, 2.1×50 mm, 100 Å) column under a gradient of acetonitrile w/0.1% heptafluorobutyric acid (HFBA) in H2O w/0.1% HFBA from 2% at minute 0 to 60% at minute 5.0, to 99% at minute 6.5 held until minute 7.5 and then reduced back to 2% until minute 10 to re-equilibrate the column for the next injection. The peak area was measured and analyte amounts were calculated referring to analyte calibration curves. Analyte levels were adjusted with internal standard concentration for extraction efficiency. Peak height measurements were conducted referring to values obtained for standards of known concentrations. […]

L3.6pl cells [2] = assay: Attached cell count (hemocytometer) after 72 h; type: cell-based, human
Protocol: In parallel with the above experiments, a dose dependence experiment was performed looking at how compound 10 at 0, 2, 5 and 7 μM affected L3.6pl cell attachment and cell number after 72 h incubation at 37° C. Successively more detached cells were observed as the concentration of compound 10 increased, particularly from 5 μM to 7 μM.
Cells were incubated with compound 10 for 72 h at 37° C. A 250 μM AG solution was incubated with the cells for 24 h prior to compound addition. Each condition was performed in duplicate.
as §1

`CC(C)CCN1CCN(C(CNCc2ccccc2)CC2CCCCC2)CC1CC(C)C.Cl.Cl.Cl` (centres unmarked) [Compound 10, Benzyl-{3-cyclohexyl-2-[3-isobutyl-4-(3-methyl-butyl)-piperazin-1-yl]-propyl}-amine trihydrochloride salt] was tested, and the “Supernatant level Acetyl spermidine” value (L3.6pl cells [1]; 2 μM) was 1649 ± 18 pmoles/mg protein, the “Supernatant level Acetyl spermine” value (L3.6pl cells [1]; 2 μM) was 49 ± 10 pmoles/mg protein and the “Supernatant level Agmatine” value (L3.6pl cells [1]; 2 μM) was 297 ± 163 pmoles/mg protein. For the same compound, the “Supernatant level Arginine” value (L3.6pl cells [1]; 2 μM) was 18396 ± 70 pmoles/mg protein, the “Supernatant level Glutamic acid” value (L3.6pl cells [1]; 2 μM) was 20231 ± 649 pmoles/mg protein and the “Supernatant level Leucine” value (L3.6pl cells [1]; 2 μM) was 15055 ± 1043 pmoles/mg protein. For the same compound, the “Supernatant level Methionine” value (L3.6pl cells [1]; 2 μM) was 17686 ± 2432 pmoles/mg protein, the “Supernatant level Ornithine” value (L3.6pl cells [1]; 2 μM) was 9249 ± 306 pmoles/mg protein and the “Supernatant level Phenylalanine” value (L3.6pl cells [1]; 2 μM) was 11954 ± 828 pmoles/mg protein. The “Supernatant level Putrescine” value (L3.6pl cells [1]; 2 μM) was 938 ± 70 pmoles/mg protein, the “Supernatant level Spermidine” value (L3.6pl cells [1]; 2 μM) was 131 ± 26 pmoles/mg protein and the “Supernatant level Spermine” value (L3.6pl cells [1]; 2 μM) was 2532 ± 406 pmoles/mg protein. For the same compound, the “Supernatant level Acetyl spermidine” value (L3.6pl cells [1]; 5 μM) was 1706 ± 29 pmoles/mg protein, the “Supernatant level Acetyl spermine” value (L3.6pl cells [1]; 5 μM) was 36 ± 4 pmoles/mg protein and the “Supernatant level Agmatine” value (L3.6pl cells [1]; 5 μM) was 485 ± 176 pmoles/mg protein. The “Supernatant level Arginine” value (L3.6pl cells [1]; 5 μM) was 43243 ± 2047 pmoles/mg protein, the “Supernatant level Glutamic acid” value (L3.6pl cells [1]; 5 μM) was 34033 ± 540 pmoles/mg protein and the “Supernatant level Leucine” value (L3.6pl cells [1]; 5 μM) was 202092 ± 23817 pmoles/mg protein. The “Supernatant level Methionine” value (L3.6pl cells [1]; 5 μM) was 64036 ± 5454 pmoles/mg protein, the “Supernatant level Ornithine” value (L3.6pl cells [1]; 5 μM) was 15951 ± 118 pmoles/mg protein and the “Supernatant level Phenylalanine” value (L3.6pl cells [1]; 5 μM) was 160462 ± 18910 pmoles/mg protein. The “Supernatant level Putrescine” value (L3.6pl cells [1]; 5 μM) was 2224 ± 98 pmoles/mg protein, the “Supernatant level Spermidine” value (L3.6pl cells [1]; 5 μM) was 167 ± 32 pmoles/mg protein and the “Supernatant level Spermine” value (L3.6pl cells [1]; 5 μM) was 2690 ± 889 pmoles/mg protein. The “Cell Count” value (L3.6pl cells [2]; 2 μM) was 9.40 millions, the “Cell Count” value (L3.6pl cells [2]; 5 μM) was 4.35 millions and the “loss of the attached cell population” value (L3.6pl cells [2]; 5 μM) was 58%. The “Cell Count” value (L3.6pl cells [2]; 7 μM) was 2.10 millions and the “loss of the attached cell population” value (L3.6pl cells [2]; 7 μM) was 80%.
